From patent US20130035344A1, “PHARMACEUTICAL COMPOSITION FOR ORAL ADMINISTRATION” (KOWA Co., Ltd., priority 2009, published 2013)

Key:
Assay type in all cases: physicochemical
[1] = Dissolution test, JP second method (paddle method), second fluid for dissolution test
Experimental: The dissolubility of the samples 1 to 6 was examined according to the second method (paddle method) of the dissolution test method according to the general test methods of the Japanese Pharmacopoeia.
103.65 mg of each of the samples 1 to 6 (53.65 mg for sample 2 only) was introduced into 900 mL of the second fluid for dissolution test according to the Japanese Pharmacopoeia, and the test was carried out under the conditions of a temperature of 37±0.5° C. and a speed of paddle rotation of 50 rpm. Thus, the concentrations of the compound a after 5, 10, 15, 30, 45 and 60 minutes were measured. The sample solution collected at each time point was filtered through a membrane filter made of PTFE (DISMIC-25HP manufactured by Toyo Roshi Kaisha, Ltd.) having a pore size of 0.45 μm, and was analyzed by a high performance liquid chromatographic method using a reversed phase column (manufactured by Nomura Chemical Co., Ltd.; Develosil ODS-HG-5). Thus, the dissolution rates were calculated.
The dissolubility of the samples 7 to 15 was examined by carrying out the test in the same manner as that described in Test Example 1, except that 153.65 mg of sample 7, 98.65 mg of sample 8, 93.65 mg of sample 9, 88.65 mg of sample 10, 78.65 mg of sample 11, 68.65 mg of sample 12, 63.65 mg of sample 13, 58.65 mg of sample 14, and 55.65 mg of sample 15 were respectively introduced into 900 mL of the second fluid for dissolution test according to the Japanese Pharmacopoeia.
The dissolubility of the tablets of Examples 8 to 10 and Comparative Examples 9 and 10 was examined by carrying out the test by the same method as that described in Test Example 1, except that one tablet each of the Examples and Comparative Examples were introduced into 900 mL of the second fluid for dissolution test according to the Japanese Pharmacopoeia.
The dissolubility of the tablets of Example 11 and Comparative Example 11 was examined by carrying out the test in the same manner as that described in Test Example 1, except that each of tablets of Example 11 and Comparative Example 11 was introduced into 900 mL of the second fluid for dissolution test according to the Japanese Pharmacopoeia.

[2] = Measurement of pH value of sample or tablet in purified water
Experimental: 103.65 mg of each of the samples 1 to 6 (53.65 mg for sample 2 only) was introduced into a beaker, and 50 mL of purified water was added thereto. While the mixture was stirred with a magnetic stirrer, the pH of the solution was measured with a glass electrode type hydrogen ion concentration meter (manufactured by Toa Electronics, Inc.; HM-50V). 50 mL of purified water was further added thereto, and then the measurement of pH was carried out in the same manner.
The pH values of the samples 7 to 15 were measured in the same manner as that used in Test Example 2. Meanwhile 153.65 mg of sample 7, 98.65 mg of sample 8, 93.65 mg of sample 9, 88.65 mg of sample 10, 78.65 mg of sample 11, 68.65 mg of sample 12, 63.65 mg of sample 13, 58.65 mg of sample 14, and 55.65 mg of sample 15 were used.
The pH values of the tablets of Examples 8 to 10 and Comparative Examples 9 and 10 were measured by the same method as that used in Test Example 2. Meanwhile, one tablet was used for each measurement.
The pH values of the tablets of Example 11 and Comparative Example 11 were measured in the same manner as that used in Test Example 2. Meanwhile, one tablet was used for each measurement.

[3] = Solubility of compound a in water
Text: However, compound a has low solubility in weakly acidic environments to alkaline environments (for example, the solubility in water is 0.05% (W/V)). Therefore, in the case of patients of achlorhydria, which is considered to develop more frequently in elderly people, there has been a concern that the dissolubility of the compound a from the pharmaceutical composition in the stomach may be insufficient, and there may be variations in the efficacy of the drug.

Structure (SMILES)	dissolution rate of compound a, Time (min) 0 ([1]; 0 min, 900 mL JP second fluid, 37±0.5° C., paddle 50 rpm) [%]	dissolution rate of compound a, Time (min) 5 ([1]; 5 min, 900 mL JP second fluid, 37±0.5° C., paddle 50 rpm) [%]	dissolution rate of compound a, Time (min) 10 ([1]; 10 min, 900 mL JP second fluid, 37±0.5° C., paddle 50 rpm) [%]	dissolution rate of compound a, Time (min) 15 ([1]; 15 min, 900 mL JP second fluid, 37±0.5° C., paddle 50 rpm) [%]	dissolution rate of compound a, Time (min) 30 ([1]; 30 min, 900 mL JP second fluid, 37±0.5° C., paddle 50 rpm) [%]	dissolution rate of compound a, Time (min) 45 ([1]; 45 min, 900 mL JP second fluid, 37±0.5° C., paddle 50 rpm) [%]	dissolution rate of compound a, Time (min) 60 ([1]; 60 min, 900 mL JP second fluid, 37±0.5° C., paddle 50 rpm) [%]	pH (100 mL) ([2]; after a further 50 mL purified water (100 mL))	pH (50 mL) ([2]; sample or one tablet in 50 mL purified water, stirred)	dissolubility of compound a (in words) ([1]; JP second fluid, paddle method)	solubility in water [3]
CSc1cc(C)nc(SC)c1NC(=O)CN1CCN(CCSc2nc3ccccc3[nH]2)CC1 [Comparative Example 1, 2-[4-[2-(Benzimidazol-2-ylthio)ethyl]piperazin-1-yl]-N-[2,4-bis(methylthio)-6-methyl-3-pyridyl]acetamide]	0	0	5.7	3.1	5.2	7.1	10.2	5.07	5.02		
CSc1cc(C)nc(SC)c1NC(=O)CN1CCN(CCSc2nc3ccccc3[nH]2)CC1 [compound a, 2-[4-[2-(Benzimidazol-2-ylthio)ethyl]piperazin-1-yl]-N-[2,4-bis(methylthio)-6-methyl-3-pyridyl]acetamide]										hardly dissolved	0.05 % (W/V)
